Legend:
[1] = system: A2058 (human melanoma cells); assay: A2058 cell scratch assay (cell migration inhibition); format: cell-based; details: A2058 scratch area 0 h vs 24 h, 10 μM LPA, read-out: Cell migration inhibition rate
Method: The activity of the compounds disclosed herein at the cell level in vitro is evaluated by A2058 (human melanoma cells, Beina Bio, BNCC341099) cell scratch assay. The inhibitory activity of the compounds against LPAR1 can be reflected by inhibition of cell scratch healing.
A2058 cells in a T75 cm^2 cell culture flask were digested and gently pipetted into single cells, adjusted to a cell density of 4×10^5 cells/mL, and then seeded into a 24-well plate. After the cell confluence reached 80%, the cell culture plate was taken out and the original medium was discarded. Serum-free medium was then added, and the cells were starved overnight in an incubator (37° C., 5% CO2). The cell culture plate was then taken out, and cell scratches were made along the diameter of the wells using a 200 μL pipette tip. The cell culture plate was then added with 500 μL of serum-free medium and then shaken gently to wash away the residual cells on the scratched surface, and this was repeated twice. The medium was discarded and 500 μL of 1% FBS medium containing the compound was then added, and the mixture was incubated at 37° C. for 30 min. […] Olympus CKX53 was used to observe the scratches, and MShot image analysis system was used to take pictures and measure the scratch area at 0 h. Then the cell culture plate was incubated in the incubator (37° C., 5% CO2). 24 h later, the scratches were observed again with Olympus CKX53, and MShot image analysis system was used to take pictures and measure the scratch area at 24 h. Cell migration inhibition rate was calculated according to the following formula: […]

[2] = In vitro metabolic stability, rat liver microsomes; format: in vitro ADME; details: 1 mg/mL liver microsome protein, 37° C.
Method: (§1) The in vitro metabolic stability of the compounds disclosed herein was determined through incubation of liver microsomes of various species. A proper amount of test compound was added into a liver microsome reaction system (1 mg/mL liver microsome protein, 25 U/mL glucose-6 phosphate dehydrogenase, 1 mM NADP, 6 mM D-glucose 6-phosphate and 5 mM MgCl2), and then the mixture was incubated in a water bath kettle at 37° C. to start reaction. At each time point, 100 μL of the reaction system was added into a centrifuge tube containing 400 μL of internal standard working solution (containing a 200 ng/mL solution of dexamethasone, diclofenac, tolbutamide and labetalol in acetonitrile) precooled at 0° C. so as to stop the reaction, and the mixture was then centrifuged at 10,000 g for 10 min at 4° C. The supernatant was collected for LC-MS assay so as to obtain the values of in vitro metabolic half-life of the test compounds in liver microsomes of various species.

[3] = In vitro metabolic stability, human liver microsomes; format: in vitro ADME; details: 1 mg/mL liver microsome protein, 37° C.
Method: as §1

[4] = target: T1, hLPAR1 (human lysophosphatidic acid receptor 1) (Homo sapiens, UniProt Q92633); assay: FLIPR intracellular calcium assay, hLPAR1 expressed in CHO-K1 cells; format: cell-based; details: antagonism of 1 μM LPA-induced calcium increase, CHO-K1 cells expressing hLPAR1; read-out: LPAR1 IC50
T1 construct: expressed in transfected cells
Method: The antagonist property of the compounds disclosed herein was determined using the FLIPR (fluorescence imaging plate reader) method, wherein the compounds are inhibitors for the intracellular calcium increase induced by activation of hLPAR1 (human lysophosphatidic acid receptor 1, accession No. NM_001401.4) expressed in CHO-K1 cells (Chinese hamster ovary cells K1, ATCC).
CHO-K1 cells stably expressing hLPAR1 were cultured in F-12 medium containing 10% FBS (fetal bovine serum, Gibco, 10099-141), 1% penicillin-streptomycin (Gibco, 15140-122) and 0.4 mg/mL hygromycin B (Gibco, 10687010) in a cell incubator (37° C., […]). During 18-24 h prior to the FLIPR experiment, cells at 250,000 cells/mL were seeded into a 96-well plate (25,000 cells/well) and incubated overnight in the cell incubator. On the day of the experiment, the medium was discarded and the cells were washed in a FLIPR buffer (0.3 mL of probenecid (Thermo, P36400), 0.6 mL of 1 M HEPES (Invitrogen, 15630080) and 29.1 mL of HBSS (Invitrogen, 14065056) per 30 mL of buffer). Each well was added with 75 μL of 1 mM Fluo-4 AM fluorescent dye (Thermo, F14202) and then the cells were subjected to dye-loading incubation at 37° C. for 1.0 h. The 96-well plate was then washed once with buffer, added with a buffer containing a test compound or vehicle at 50 μL per well and then incubated for 30 min at room temperature. The cell plate was then placed in the FLIPR for baseline fluorescence measurements (excitation at 485 nm and emission at 525-535 nm). An agonist (oleoyl-L-α-lysophosphatidic acid sodium salt (Sigma, L7260) at a final concentration of 1 μM) or a vehicle (ultrapure water) was then added at 50 μL/well, fluorescence values were measured for 2 min at 1-second intervals, and finally the output fluorescence counts were analyzed.

[5] = In vitro cytotoxicity assay in HepG2 cells, CCK-8 method; format: cell-based; details: human, 48 h incubation
Method: In vitro cytotoxicity assay for the compounds disclosed herein was performed in HepG2 cells using the CCK-8 method. HepG2 cells (Beina Bio) in the logarithmic growth phase were collected, the concentration of cell suspension was adjusted, and then the cells were plated on a 96-well cell culture plate at 50,000 cells/well. • The cells were then incubated overnight in a cell incubator (5% CO2, 37° C.), and after 80-90% cell confluence was achieved, test compounds or vehicle (DMSO) at various concentration gradients were added after medium change. The resulting mixture was incubated in the cell incubator (5% CO2, 37° C.) for 48 h. After the treatment, the medium in the plate was discarded. The plate was washed twice with PBS, added with CCK-8 working solution (Beyotime) at 100 μL per well, and then incubated at 37° C. for 1.5 h in the dark. Absorbance at OD450nm was measured for each well on a microplate reader, and CC50 value of each compound was analyzed and calculated.

[6] = In vitro metabolic stability, mouse liver microsomes; format: in vitro ADME; details: 1 mg/mL liver microsome protein, 37° C.
Method: as §1

T1 sequence (Q92633 whole entry): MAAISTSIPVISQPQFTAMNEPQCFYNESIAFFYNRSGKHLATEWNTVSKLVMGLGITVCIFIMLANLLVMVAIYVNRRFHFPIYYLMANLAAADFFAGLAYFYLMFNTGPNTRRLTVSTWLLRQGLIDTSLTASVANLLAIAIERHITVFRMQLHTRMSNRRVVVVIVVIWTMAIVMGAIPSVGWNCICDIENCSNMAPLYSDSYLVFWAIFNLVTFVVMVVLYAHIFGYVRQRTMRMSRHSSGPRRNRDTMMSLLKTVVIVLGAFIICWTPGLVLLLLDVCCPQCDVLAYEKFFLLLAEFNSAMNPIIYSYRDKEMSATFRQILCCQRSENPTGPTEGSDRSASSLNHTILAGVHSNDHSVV

half-life [2] | half-life [3] | IC50 [4] | half-life [6] | Structure (SMILES) | inhibition [1] | CC50 at 48 h [5]
< 30 min | > 30 min | 300 to 10000 nM | > 30 min | CN(Cc1ccccc1)C(=O)OCc1c(-c2ccc(Oc3cc(Cl)ccc3C(=O)O)cc2)nnn1C [Compound 7, 4-chloro-2-(4-(5-(((benzyl(methyl)carbamoyl)oxo)methyl)-1-methyl-1H-1,2,3-triazol-4-yl)phenoxy)benzoic acid] | 0 to 30% | > 200000 nM
> 30 min | > 30 min | 50 to 300 nM | > 30 min | CN(Cc1ccccc1)C(=O)/C=C/c1c(-c2ccc(O[C@H]3CCC[C@H](C(=O)O)C3)cc2)nnn1C (racemic) [Compound 2] | 0 to 30% | > 200000 nM
> 30 min | > 30 min | 50 to 300 nM | > 30 min | CN(C(=O)NCc1c(-c2ccc(O[C@H]3CCC[C@H](C(=O)O)C3)c(F)c2)nnn1C)C1CCCC1 [Compound 25] | 30 to 50% | > 200000 nM
– | – | 50 to 300 nM | – | Cn1nnc(-c2ccc(O[C@H]3CCC[C@H](C(=O)O)C3)cc2)c1CNS(=O)(=O)c1ccccc1 (racemic) [Compound 18, (+/−)-(1S,3S)-3-(4-(1-methyl-5-(benzenesulfonamidomethyl)-1H-1,2,3-triazol-4-yl)phenoxy)cyclohexane-1-carboxylic acid] | 30 to 50% | > 200000 nM
– | – | 50 to 300 nM | – | CC(C)OCc1c(-c2ccc(O[C@H]3CCC[C@H](C(=O)O)C3)cc2)nnn1C (racemic) [Compound 22, (+/−)-(1S,3S)-3-(4-(5-(isopropoxymethyl)-1-methyl-1H-1,2,3-triazol-4-yl)phenoxy)cyclohexane-1-carboxylic acid] | 30 to 50% | > 200000 nM
> 30 min | > 30 min | 50 to 300 nM | > 30 min | CN(Cc1ccccc1)C(=O)CCc1c(-c2ccc(O[C@H]3CCC[C@H](C(=O)O)C3)cc2)nnn1C (racemic) [Compound 3] | 30 to 50% | > 200000 nM
> 30 min | > 30 min | 50 to 300 nM | > 30 min | CN(C(=O)OC1CCCC1)c1c(-c2ccc(O[C@H]3CCC[C@H](C(=O)O)C3)cc2)nnn1C (racemic) [Compound 31, (+/−)-(1S,3S)-3-(4-(5-(((cyclopentyloxy)carbonyl)(methyl)amino)-1-methyl-1H-1,2,3-triazol-4-yl)phenoxy)cyclohexane-1-carboxylic acid] | 30 to 50% | > 200000 nM
– | – | 300 to 10000 nM | – | Cc1ncc(-c2c(-c3ccc(O[C@H]4CCC[C@H](C(=O)O)C4)cc3)nnn2C)o1 (racemic) [Compound 15, (+/−)-(1S,3S)-3-(4-(1-methyl-5-(2-methyloxazol-5-yl)-1H-1,2,3-triazol-4-yl)phenoxy) cyclohexane-1-carboxylic acid] | 30 to 50% | > 200000 nM
– | – | 50 to 300 nM | – | CN(Cc1ccccc1)C(=O)OCc1c(-c2ccc(N[C@H]3CCC[C@H](C(=O)O)C3)cc2)nnn1C [Compound 13, 3-((4-(5-(((benzyl(methyl)carbamoyl)oxo)methyl)-1-methyl-1H-1,2,3-triazol-4-yl)phenyl)amino)cyc lohexanecarboxylic acid] | 0 to 30% | > 200000 nM
– | – | 50 to 300 nM | – | CN(Cc1c(-c2ccc(O[C@H]3CCC[C@H](C(=O)O)C3)cc2)nnn1C)C(=O)OCc1ccccc1 [Compound 14, (1S,3S)-3-(4-(5-((((benzyloxy)carbonyl)(methyl)amino)methyl)-1-methyl-1H-1,2,3-triazol-4-yl)phenoxy)cyclohexane-1-carboxylic acid] | 30 to 50% | > 200000 nM
57 min | 232 min | ≤ 50 nM | 192 min | CN(C(=O)CCc1c(-c2ccc(O[C@H]3CCC[C@H](C(=O)O)C3)c(C(F)(F)F)n2)nnn1C)C1CCCC1 (racemic) [Compound 27-A, (+/−)-(1S,3S)-3-((6-(5-(3-(cyclopentyl(methyl)amino)-3-carbonylpropyl)-1-methyl-1H-1,2,3-triazol-4-yl)-2-(trifluoromethyl)pyridin-3-yl)oxo)cyclohexane-1-carboxylic acid] | 50 to 70% | > 200000 nM
> 30 min | > 30 min | ≤ 50 nM | > 30 min | CN(C(=O)NCc1c(-c2ccc(O[C@H]3CCC[C@H](C(=O)O)C3)c(C(F)(F)F)n2)nnn1C)C1CCCC1 (racemic) [Compound 26, (+/−)-(1S,3S)-3-((6-(5-((3-cyclopentyl-3-methylureido)methyl)-1-methyl-1H-1,2,3-triazol-4-yl)-2-(trifluoromethyl)pyridin-3-yl)oxo)cyclohexane-1-carboxylic acid] | 30 to 50% | > 200000 nM
– | – | 50 to 300 nM | – | Cn1nnc(-c2ccc(O[C@H]3CCC[C@H](C(=O)O)C3)cc2)c1CN1CCN(Cc2ccccc2)C1=O (racemic) [Compound 17, (+/−)-(1S,3S)-3-(4-(5-((3-benzyl-2-carbonylimidazolidin-1-yl)methyl)-1-methyl-1H-1,2,3-triazol-4-yl)phenoxy)cyclohexane-1-carboxylic acid] | 0 to 30% | > 200000 nM
– | – | 50 to 300 nM | – | Cn1nnc(-c2ccc(O[C@H]3CCC[C@H](C(=O)O)C3)cc2)c1C1CN(Cc2ccccc2)C(=O)O1 (stereo partly drawn) [Compound 9, (1S,3S)-3-(4-(5-(3-benzyl-2-carbonyloxazolidin-5-yl)-1-methyl-1H-1,2,3-triazol-4-yl)phenoxy)cyclohexane-1-carboxylic acid] | 30 to 50% | > 200000 nM
– | – | 50 to 300 nM | – | CN(C(=O)NCc1c(-c2ccc(O[C@H]3CCC[C@H](C(=O)O)C3)cc2)nnn1C)C1CCCC1 (racemic) [Compound 30, (+/−)-(1S,3S)-3-(4-(5-((3-cyclopentyl-3-methylureido)methyl)-1-methyl-1H-1,2,3-triazol-4-yl)phenoxy)cyclohexane-1-carboxylic acid] | 30 to 50% | > 200000 nM
